Measured values reported in PubChem BioAssay (NCI).
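Briefly, cells in 96-well plates were exposed to five compound concentrations for 48 h, and endpoints were estimated by linear interpolation. GI50 marks 50% less growth. Definition used: TGI = concentration required for complete inhibition of growth.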

Experiments:
Experiment in all cases: NCI anticancer screen, dose series, 48 h; in the data active means GI50 below about 0.43 µM; inactive means the rest
[1] = test system: 786-0 renal
[2] = test system: A498 renal
[3] = test system: A549 NSCLC
[4] = test system: ACHN renal
[5] = test system: BT-549 breast
[6] = test system: CAKI-1 renal
[7] = test system: CCRF-CEM leukemia
[8] = test system: COLO 205 colon
[9] = test system: DU-145 prostate
[10] = test system: EKVX NSCLC
[11] = test system: HCC-2998 colon
[12] = test system: HCT-116 colon
[13] = test system: HCT-15 colon
[14] = test system: HL-60(TB) leukemia
[15] = test system: HOP-62 NSCLC
[16] = test system: HOP-92 NSCLC
[17] = test system: HS 578T breast
[18] = test system: HT29 colon
[19] = test system: IGROV1 ovarian
[20] = test system: K-562 leukemia
[21] = test system: KM12 colon
[22] = test system: LOX IMVI melanoma
[23] = test system: M14 melanoma
[24] = test system: MALME-3M melanoma
[25] = test system: MCF7 breast
[26] = test system: MDA-MB-231 breast
[27] = test system: MDA-MB-435
[28] = test system: MOLT-4 leukemia
[29] = test system: NCI-H226 lung
[30] = test system: NCI-H23 lung
[31] = test system: NCI-H460 lung
[32] = test system: NCI-H522 lung
[33] = test system: NCI/ADR-RES ovarian
[34] = test system: OVCAR-3 ovarian
[35] = test system: OVCAR-4 ovarian
[36] = test system: OVCAR-5 ovarian
[37] = test system: OVCAR-8 ovarian
[38] = test system: PC-3 prostate
[39] = test system: RPMI-8226 leukemia
[40] = test system: RXF 393 renal
[41] = test system: SF-268 CNS
[42] = test system: SF-295 CNS
[43] = test system: SF-539 CNS
[44] = test system: SK-MEL-2 melanoma
[45] = test system: SK-MEL-28 melanoma
[46] = test system: SK-MEL-5 melanoma
[47] = test system: SK-OV-3 ovarian
[48] = test system: SN12C renal
[49] = test system: SNB-19 CNS
[50] = test system: SNB-75 CNS
[51] = test system: SR leukemia
[52] = test system: SW-620 colon
[53] = test system: T-47D breast
[54] = test system: TK-10 renal
[55] = test system: U251 CNS
[56] = test system: UACC-257 melanoma
[57] = test system: UACC-62 melanoma
[58] = test system: UO-31 renal

CN1CC[C@]2(c3cccc(O)c3)CC(=O)/C(=C/c3ccccc3)[C@H]1C2
18.2 µM: TGI [41]
9.99 µM: TGI [11]
17.7 µM: TGI [20]
7.35 µM: TGI [33]
9.46 µM: TGI [23] | TGI [37]
11.1 µM: TGI [3]
10.6 µM: TGI [13]
8.43 µM: TGI [8]
17.4 µM: TGI [49]
> 22 µM: TGI [39]
17 µM: TGI [42]
8.08 µM: TGI [26]
7.92 µM: TGI [16]
7.76 µM: TGI [32]
10.4 µM: TGI [25]
21.1 µM: TGI [2]
6.96 µM: TGI [28]
10.1 µM: TGI [1]
12.1 µM: TGI [17]
11.9 µM: TGI [52]
5.9 µM: TGI [51]
16.1 µM: TGI [36]
7.44 µM: TGI [53]
11 µM: TGI [35]
9.36 µM: TGI [7]
14.5 µM: TGI [5]
5.45 µM: TGI [14]
8.73 µM: TGI [47]
8.03 µM: TGI [40]
4.1 µM: TGI [22]
7.29 µM: TGI [12]
12.6 µM: TGI [19] | TGI [44]
6.32 µM: TGI [31]
11.3 µM: TGI [9]
6.95 µM: TGI [34]
8.96 µM: TGI [27]
12.4 µM: TGI [18]
9.35 µM: TGI [46]
9.83 µM: TGI [58]
5.2 µM: TGI [43]
28.6 µM: TGI [29]
7.03 µM: TGI [4]
9.93 µM: TGI [6]
12.7 µM: TGI [57]
12.9 µM: TGI [38]
13.9 µM: TGI [10] | TGI [21]
9.92 µM: TGI [55]
9.51 µM: TGI [24]
13.2 µM: TGI [54]
11.4 µM: TGI [48]
14.4 µM: TGI [50]
9.72 µM: TGI [56]
inactive: GI50 [1] 3.21 µM | GI50 [5] 3.64 µM | GI50 [7] 2.53 µM | GI50 [8] 3.06 µM | GI50 [9] 3.14 µM | GI50 [10] 3.57 µM | GI50 [11] 3.11 µM | GI50 [13] 2.5 µM | GI50 [15] 3.21 µM | GI50 [18] 3.59 µM | GI50 [19] 3.38 µM | GI50 [27] 2.08 µM | GI50 [29] 9.03 µM | GI50 [30] 2.87 µM | GI50 [33] 2.42 µM | GI50 [34] 2.64 µM | GI50 [36] 4.34 µM | GI50 [38] 3.22 µM | GI50 [39] 2.1 µM | GI50 [40] 2.5 µM | GI50 [41] 6.04 µM | GI50 [42] 4.5 µM | GI50 [44] 3.28 µM | GI50 [47] 2.81 µM | GI50 [49] 4.75 µM | GI50 [50] 3.89 µM | GI50 [51] 1.35 µM | GI50 [53] 2.57 µM | GI50 [54] 6.32 µM | GI50 [56] 2.6 µM | GI50 [57] 3.06 µM | GI50 [58] 2 µM
10.8 µM: TGI [15] | TGI [30]
12.8 µM: TGI [45]

CC1=C(C(=O)Nc2ccc3[nH]ncc3c2)C(c2ccc(Cl)c(Cl)c2)CC(=O)N1 (stereo unspecified)
> 7.6 µM: TGI [16]
active: GI50 [16] 0.277 µM
> 19.1 µM: TGI [50]
> 25 µM: TGI [1] | TGI [2] | TGI [3] | TGI [4] | TGI [5] | TGI [6] | TGI [7] | TGI [8] | TGI [9] | TGI [10] | TGI [11] | TGI [12] | TGI [13] | TGI [14] | TGI [15] | TGI [17] | TGI [18] | TGI [19] | TGI [20] | TGI [21] | TGI [22] | TGI [23] | TGI [24] | TGI [25] | TGI [26] | TGI [27] | TGI [28] | TGI [29] | TGI [30] | TGI [31] | TGI [32] | TGI [33] | TGI [34] | TGI [35] | TGI [36] | TGI [37] | TGI [38] | TGI [39] | TGI [40] | TGI [41] | TGI [42] | TGI [43] | TGI [44] | TGI [45] | TGI [46] | TGI [47] | TGI [48] | TGI [49] | TGI [51] | TGI [52] | TGI [53] | TGI [54] | TGI [55] | TGI [56] | TGI [57] | TGI [58]
inactive: GI50 [1] > 25 µM | GI50 [2] 4.14 µM | GI50 [3] > 25 µM | GI50 [4] > 25 µM | GI50 [5] 4.99 µM | GI50 [6] > 16 µM | GI50 [7] 24.2 µM | GI50 [8] 16.6 µM | GI50 [9] > 25 µM | GI50 [10] > 14.6 µM | GI50 [11] > 25 µM | GI50 [12] 19.4 µM | GI50 [13] > 25 µM | GI50 [14] > 25 µM | GI50 [15] 17 µM | GI50 [17] 4.29 µM | GI50 [18] 24.6 µM | GI50 [19] 12.8 µM | GI50 [20] > 25 µM | GI50 [21] > 25 µM | GI50 [22] > 22.3 µM | GI50 [23] > 25 µM | GI50 [24] 10.6 µM | GI50 [25] > 24.1 µM | GI50 [26] 15.9 µM | GI50 [27] > 25 µM | GI50 [28] > 22.9 µM | GI50 [29] 6.09 µM | GI50 [30] > 25 µM | GI50 [31] > 25 µM | GI50 [32] 19.5 µM | GI50 [33] > 25 µM | GI50 [34] > 25 µM | GI50 [35] > 25 µM | GI50 [36] > 25 µM | GI50 [37] > 25 µM | GI50 [38] > 20.4 µM | GI50 [39] > 25 µM | GI50 [40] 8.2 µM | GI50 [41] 9.62 µM | GI50 [42] > 19.5 µM | GI50 [43] > 16.8 µM | GI50 [44] > 25 µM | GI50 [45] > 25 µM | GI50 [46] > 25 µM | GI50 [47] > 25 µM | GI50 [48] > 25 µM | GI50 [49] > 25 µM | GI50 [50] 2.25 µM | GI50 [51] > 25 µM | GI50 [52] > 20.7 µM | GI50 [53] > 25 µM | GI50 [54] > 12.5 µM | GI50 [55] > 25 µM | GI50 [56] > 25 µM | GI50 [57] 18.1 µM | GI50 [58] 3.22 µM
